Test results as given in patent US9440972B2, “Pyrido[2,3-d]pyrimidine-2,4(1 H,3H)-dione derivatives” (Hydra Biosciences, Inc., priority 2014, dated 2016).

Biological target: T1, TRPC5 channel (Homo sapiens, UniProt Q9UL62)
T1 construct: expressed in transfected cells; host or cells: HEK293/TREx (Invitrogen), tetracycline-induced
T1 sequence (Q9UL62 1-973): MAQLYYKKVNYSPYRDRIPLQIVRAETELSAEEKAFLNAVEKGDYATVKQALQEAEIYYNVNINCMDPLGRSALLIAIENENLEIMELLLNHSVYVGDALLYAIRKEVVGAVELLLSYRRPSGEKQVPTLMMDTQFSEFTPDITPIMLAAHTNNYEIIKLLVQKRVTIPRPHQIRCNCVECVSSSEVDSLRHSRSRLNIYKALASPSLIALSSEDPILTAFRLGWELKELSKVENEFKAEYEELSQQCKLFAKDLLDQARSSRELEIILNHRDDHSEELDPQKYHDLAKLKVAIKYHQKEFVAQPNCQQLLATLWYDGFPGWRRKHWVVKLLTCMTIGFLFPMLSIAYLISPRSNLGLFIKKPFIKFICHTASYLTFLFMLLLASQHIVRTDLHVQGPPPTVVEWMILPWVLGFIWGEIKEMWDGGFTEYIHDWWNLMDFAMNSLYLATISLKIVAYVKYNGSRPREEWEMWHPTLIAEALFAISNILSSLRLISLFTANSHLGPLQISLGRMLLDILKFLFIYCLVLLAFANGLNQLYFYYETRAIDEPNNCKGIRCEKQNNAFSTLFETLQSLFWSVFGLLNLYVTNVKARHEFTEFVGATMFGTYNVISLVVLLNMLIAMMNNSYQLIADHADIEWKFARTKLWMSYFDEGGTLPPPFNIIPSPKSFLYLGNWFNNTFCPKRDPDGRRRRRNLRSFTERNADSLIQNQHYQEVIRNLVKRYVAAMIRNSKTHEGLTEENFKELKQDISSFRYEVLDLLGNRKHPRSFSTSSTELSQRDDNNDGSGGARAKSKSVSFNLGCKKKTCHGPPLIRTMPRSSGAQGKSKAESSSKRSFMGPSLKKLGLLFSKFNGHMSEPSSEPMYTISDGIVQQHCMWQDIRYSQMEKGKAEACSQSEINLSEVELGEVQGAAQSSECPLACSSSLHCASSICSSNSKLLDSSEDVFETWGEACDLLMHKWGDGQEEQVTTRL
Experiment: High throughput screening assay: Fluo4 cell-based fluorescence assay of intracellular Ca2+ rise
Conditions: HEK293/TREx cells inducibly expressing TRPC5, 0.027-20 μM in triplicate, NF = no IC50 curve could be fit
From the text: The assay depended on detection of the rise in intracellular Ca2+ concentration ([Ca2+]i) following channel activation in cells inducibly expressing the TRPC5 channel. Ca2+ rise was quantified with the use of fluorescent Ca2+ indicators that were loaded into cells and thereafter indicated the [Ca2+]i Ca2+ influx followed activation of the TRPC5 channel. Compounds inhibiting the [Ca2+]i rise were considered hits for further investigation.
The commercially available HEK293/TREx line (Invitrogen) was stably transfected with a TRPC5 construct and screened by conventional calcium imaging to find clones with TRPC5 expression following stimulation with 1 μg/ml tetracycline. These cells were maintained in the growth medium recommended by the manufacturer supplemented with 100 μg/ml hygromycin to promote retention of the TRPC5 construct. After growing to near confluency, cells were plated at a density of ˜35,000 cells/well in 384 well CellBind plates (Corning) in the presence of 1 μg/ml tetracycline, and allowed to grow for 20-30 hrs. A nearly confluent monolayer resulted. Cells were then loaded with Ca2+ dye: Fura-2/AM or Fluo4/AM was added to the wells to a final concentration of 4 μM or 0.5 μM, respectively, and incubated for 80 min or 60 min, respectively, at room temperature. Supernatant was then removed from the cells by inverting plates with a sharp flick, and 25 μl Hank's Balanced Salt Solution (HBSS; 0.185 g/l D-glucose, 0.9767 g/l MgS04 (anhydrous), 0.4 g/l KCl, 0.06 g/l KH2PO4 (anhydrous), 0.35 g/l NaHCO3, 8.0 g/l NaCl, and 0.04788 g/l Na2HPO4 (anhydrous); pH 7.4) was then added to each well. Following ˜0.5 hour for recovery from loading, cells were assayed using the Hamamatsu FDSS 6000 system, which permitted illumination alternately at 340 nm and 380 nm for Fura-2 experiments, or at 485 nm for Fluo4 experiments. Frames were acquired at a rate of 0.2 Hz. During the assay, the plates were continuously vortexed, with pipette mixing of wells following addition of each reagent. For the screening assay, 26 μl of a diluted compound stock (at 50 μM) was added to each well for 2 minutes following the collection of a short (4 frame) baseline. 13 μl 62 mM high-Ca2+Ringer solution (4.17 ml of normal ringer (with 2 mM Ca2+) plus 5.83 ml of isotonic calcium ringer (105 mM Ca2+; in this ringer all sodium has been replaced with calcium)) was then added to each well, achieving a final concentration of 14 mM Ca2+ and 10 μM test compound. Data was collected for ˜3 minutes following addition of high Ca2+Ringer, where the fluorescent intensity (for Fluo4) and the F340/F380 ratio (for Fura-2) were proportional to the [Ca2+]i Negative controls consisted of HEK293/TREx TRPC5 cells exposed to high Ca2+ solution, but no compound. Positive control conditions consisted of addition of 2-APB, a promiscuous blocker of TRPC5 and other channels, to columns 23 and 24 of the plates, to a final concentration of 200 μM. These controls defined a screening window, and “hits” were defined as those compounds inhibiting the fluorescence response by at least 40%. IC50 values were determined for compounds defined as “hits.” The Fluo4 cell-based fluorescence assay was used to determine the intracellular Ca2+ concentration in the presence of varying drug concentration. Final concentrations of compounds tested were 20 μM, 6.667 μM, 2.222 μM, 0.741 μM, 0.247 μM, 0.082 μM, and 0.027 μM. Compounds were tested in triplicate at all concentrations. Standard software was used to fit IC50 curves. A value of NF was assigned when no IC50 curves could not be fit.
Additionally or alternatively, efficacy can be represented as % inhibition in the presence (of a given concentration of compound) versus the absence of compound or in comparison to a control compound. For example, efficacy can be represented as % inhibition of ion flux in the presence versus the absence of compound.

Structure (SMILES) | IC50 [nM]
Cn1c(=O)n(CCCO)c(=O)c2c(Cc3ccc(Cl)cc3)c(Oc3cncc(F)c3)cnc21 [Compound 15, 5-(4-chlorobenzyl)-6-((5-fluoropyridin-3-yl)oxy)-3-(3-hydroxypropyl)-1-methylpyrido[2,3-d]pyrimidine-2,4(1H,3H)-dione] | 7530
Cn1c(=O)n(CCCO)c(=O)c2c(Cc3ccc(Cl)cc3)c(Oc3cncc(Cl)c3)cnc21 [Compound 16, 5-(4-chlorobenzyl)-6-((5-chloropyridin-3-yl)oxy)-3-(3-hydroxypropyl)-1-methylpyrido[2,3-d]pyrimidine-2,4(1H,3H)-dione] | 3740
CC(C)c1ccccc1-c1cnc2c(c1C(O)c1ccc(Cl)cc1)c(=O)n(CCCO)c(=O)n2C (stereo not drawn) [Compound 20, 5-((4-chlorophenyl)(hydroxy)methyl)-3-(3-hydroxypropyl)-6-(2-isopropylphenyl)-1-methylpyrido[2,3-d]pyrimidine-2,4(1H,3H)-dione] | 977
Cn1c(=O)n(CCCO)c(=O)c2c(Cc3ccc(C(F)(F)F)cc3)c(Oc3cccc(C(F)(F)F)c3)cnc21 [Compound 22, 3-(3-hydroxypropyl)-1-methyl-5-(4-(trifluoromethyl)benzyl)-6-(3-(trifluoromethyl)phenoxy)pyrido[2,3-d]pyrimidine-2,4(1H,3H)-dione] | 180
Cn1c(=O)n(CCCO)c(=O)c2c(Cc3ccc(C(F)(F)F)nc3)c(Oc3cccc(C(F)(F)F)c3)cnc21 [Compound 24, 3-(3-hydroxypropyl)-1-methyl-6-(3-(trifluoromethyl)phenoxy)-5-((6-(trifluoromethyl)pyridin-3-yl)methyl)pyrido[2,3-d]pyrimidine-2,4(1H,3H)-dione] | 1340
Cn1c(=O)n(CCCO)c(=O)c2c(Cc3ccc(Cl)cc3)c(-c3cccc(F)c3)cnc21 [Compound 25, 5-(4-chlorobenzyl)-6-(3-fluorophenyl)-3-(3-hydroxypropyl)-1-methylpyrido[2,3-d]pyrimidine-2,4(1H,3H)-dione] | 739
Cn1c(=O)n(CCCO)c(=O)c2c(Cc3ccc(C(F)(F)F)nc3)c(Oc3cccc(OC(F)(F)F)c3)cnc21 [Compound 32, 3-(3-hydroxypropyl)-1-methyl-6-(3-(trifluoromethoxy)phenoxy)-5-((6-(trifluoromethyl)pyridin-3-yl)methyl)pyrido[2,3-d]pyrimidine-2,4(1H,3H)-dione] | 350
Cn1c(=O)n(CCCO)c(=O)c2c(Cc3ccc(C(F)(F)F)nc3)c(Oc3cccc(Cl)c3)cnc21 [Compound 43, 6-(3-chlorophenoxy)-3-(3-hydroxypropyl)-1-methyl-5-((6-(trifluoromethyl)pyridin-3-yl)methyl)pyrido[2,3-d]pyrimidine-2,4(1H,3H)-dione] | 1420

Second part, the molecule after the results:

IC50 [nM] | Structure (SMILES)
3250 | Cn1c(=O)n(CCCO)c(=O)c2c(Cc3ccc(Cl)cc3)c(Oc3cccnc3)cnc21 [Compound 14, 5-(4-chlorobenzyl)-3-(3-hydroxypropyl)-1-methyl-6-(pyridin-3-yloxy)pyrido[2,3-d]pyrimidine-2,4(1H,3H)-dione]
1290 | Cn1c(=O)n(CCCO)c(=O)c2c(Cc3ccc(Cl)cc3)c(Oc3cccc(Cl)c3)cnc21 [Compound 26, 5-(4-chlorobenzyl)-6-(3-chlorophenoxy)-3-(3-hydroxypropyl)-1-methylpyrido[2,3-d]pyrimidine-2,4(1H,3H)-dione]
28.5 | CC(C)c1cccc(Oc2cnc3c(c2Cc2ccccc2)c(=O)n(CCCO)c(=O)n3C)c1 [Compound 28, 5-benzyl-3-(3-hydroxypropyl)-6-(3-isopropylphenoxy)-1-methylpyrido[2,3-d]pyrimidine-2,4(1H,3H)-dione]
1160 | CC(C)CCc1c(OC(C)C)cnc2c1c(=O)n(CCCO)c(=O)n2C [Compound 37, 3-(3-hydroxypropyl)-5-isopentyl-6-isopropoxy-1-methylpyrido[2,3-d]pyrimidine-2,4(1H,3H)-dione]
215 | CC(C)c1ccccc1-c1cnc2c(c1Cc1ccc(Cl)cc1)c(=O)n(CCCO)c(=O)n2C [Compound 38, 5-(4-chlorobenzyl)-3-(3-hydroxypropyl)-6-(2-isopropylphenyl)-1-methylpyrido[2,3-d]pyrimidine-2,4(1H,3H)-dione]
33.8 | CC(C)c1ccccc1Oc1cnc2c(c1Cc1ccc(F)cc1)c(=O)n(CCCO)c(=O)n2C [Compound 41, 5-(4-fluorobenzyl)-3-(3-hydroxypropyl)-6-(2-isopropylphenoxy)-1-methylpyrido[2,3-d]pyrimidine-2,4(1H,3H)-dione]
3450 | CC(C)CC(O)c1c(Oc2cccc(OC(F)(F)F)c2)cnc2c1c(=O)n(CCCO)c(=O)n2C (stereo not drawn) [Compound 44, 5-(1-hydroxy-3-methylbutyl)-3-(3-hydroxypropyl)-1-methyl-6-(3-(trifluoromethoxy)phenoxy)pyrido[2,3-d]pyrimidine-2,4(1H,3H)-dione]
> 20000 | CC(C)CCc1c(Oc2cccc(C(F)(F)F)c2)cnc2c1c(=O)n(CCCO)c(=O)n2C [Compound 46, 3-(3-hydroxypropyl)-5-isopentyl-1-methyl-6-(3-(trifluoromethyl)phenoxy)pyrido[2,3-d]pyrimidine-2,4(1H,3H)-dione]
> 10000 | CC(C)CCc1c(Oc2cccc(Cl)c2)cnc2c1c(=O)n(CCCO)c(=O)n2C [Compound 48, 6-(3-chlorophenoxy)-3-(3-hydroxypropyl)-5-isopentyl-1-methylpyrido[2,3-d]pyrimidine-2,4(1H,3H)-dione]
> 20000 | CC(C)CCc1c(Oc2cccc(OC(F)(F)F)c2)cnc2c1c(=O)n(CCCO)c(=O)n2C [Compound 49, 3-(3-hydroxypropyl)-5-isopentyl-1-methyl-6-(3-(trifluoromethoxy)phenoxy)pyrido[2,3-d]pyrimidine-2,4(1H,3H)-dione]
